The values that follow come from US11767298B2, “Substituted benzimidazoles as inhibitors of transforming growth factor-β kinase” (Duke University, priority 2016, dated 2023).

One series deals with T1, TAK1 (Homo sapiens, UniProt O43318).
T1 construct: endogenous in cells; host or cells: MDA-MB-231
The experiment in a line: Western Blot analysis of PROTAC-treated MDA-MB-231 cells, TAK1. The class given is cell-based. The text has this: TAK1 is an Hsp90 client protein, which is why its expression is likely affected in these samples. […] This effect has previously been described as prozone effect. At high PROTAC concentrations, both E3 ligase and protein are saturated individually with PROTAC, so that the complex of ligase and protein can no longer be formed.

Series [1] relates to P. berghei. The experiment in a line: Liver stage parasite load, luciferase-expressing P. berghei in HepG2 cells. Format: cell-based, Plasmodium berghei ANKA. To be noted: HepG2 host cells. How it is done: (§1) Cell-based anti-Plasmodium assays. For liver stage assays, 15,000 HepG2 or 8,000 Huh7 cells/well were added to 384-well microtiter plates using a multichannel pipette (Rainin). After 2 hours at 37° C., compounds (0-100 μM) were added to cells in duplicate or triplicate in a final concentration of 1% DMSO. DMSO was used as the negative control. Following compound incubation at 37° C. for ˜1 hr, harvested luciferase-expressing P. berghei ANKA sporozoites were added to the plates at a density of 3,000 sporozoites/well. P. berghei ANKA sporozoites were obtained from harvesting the salivary glands of infected A. stephensi mosquitoes. The plates were spun for 10 min at 1,000 rpm, and then incubated at 37° C. for ˜45 hrs. […] After ˜45 hours at 37° C., liver cell viability was assessed using CellTiter-Fluor (Promega) and then parasite load was determined using Bright-Glo (Promega). The relative fluorescence and luminescence signal intensity of each well was evaluated with an EnVision System. The luminescence signal in the presence of compounds was normalized to the negative control (DMSO). Dose-response analysis was performed with GraphPad Prism to yield the reported EC50 values.
(§2) Anti-Plasmodium activity was evaluated in the parasite's liver stage using a previously reported high-throughput assay. In this assay, luciferase-expressing P. berghei (murine) parasites are used to infect human hepatoma cells (HepG2) and parasite load is assessed with a luminometer subsequent to evaluating HepG2 viability using a commercially available quantification kit that measures intracellular protease activity.
(§3) Specifically, their ability to inhibit P. berghei infection in two human hepatoma cell lines (HepG2 and Huh7) as well as cytotoxicity against HepG2 and Huh7 cells was determined as described above. Liver cell cytotoxicity was evaluated with two different commercially available assays, one that tests for intracellular protease activity with a fluorescence reporter and another that relies on the luminescent detection of total ATP.

The next series deals with PfPK9. The experiment in a line: UBC13 phosphorylation by PfPK9 (ADP luminescence assay). The class given is biochemical, P. falciparum. The settings on record: compared to DMSO. How it is done:
Recombinant protein expression and enzyme activity assay. Recombinant GST-tagged PfPK9 was expressed in E. coli BL21(DE3) cells, purified to homogeneity, and the GST tag was cleaved with PreScission Protease (GE Healthcare). To test for inhibition of PfPK9, the ADP detection assay ADP-Glo (Promega) was used to determine ATPase activity of PfPK9 in the presence of the PfUBC13 protein substrate when treated with compounds 1 and 5. Approximately 500 nM PfPK9 was incubated with either compound (10 μM or 500 μM) for 5 min at RT in buffer containing 40 mM Tris, pH 7.5, 20 mM MgCl2, 2 mM MnCl2 and 1 mM DTT prior to assay initiation with 100 μM ATP. The assay was performed in white low-volume 384-well plates (Corning #3824) in triplicate. The assay plate was sealed and subsequently incubated for 8 hrs at 37° C. before ADP detection per manufacturer instructions. The final assay volume was 5 μL with a final concentration of 1% DMSO. A negative control was performed in 1% DMSO and heat inactivated PfPK9 (80° C. for 5 min) was used as a positive control. The luminescence intensity in each well was measured on an EnVision system. Data were normalized to the average luminescence signal of the negative control to provide relative ADP concentrations and graphs were constructed in GraphPad Prism. Data analyses were conducted from three independent experiments. […]

The next series relates to Huh7 cells. The experiment in a line: Huh7 cell viability / cytotoxicity. The class given is cell-based, human. To be noted: concentrations up to 200 μM. The procedure: as §1, with “After 2 hours at 37° C., compounds (0-100 μM) were added to cells in duplicate or triplicate in a final concentration of 1% DMSO.” left out
as §3

The test system of another series is HepG2 cells. The experiment in a line: HepG2 cell viability / cytotoxicity. Format: cell-based, human. The settings on record: HepG2; concentrations up to 200 μM. How it is done:
as §1, §2, §3

Series [2] relates to K63-linked ubiquitination. The series is described as follows: Western blot for K63-linked ubiquitination in Plasmodium blood stage. The class given is cell-based, P. falciparum. To be noted: 30 μM, 24 hr, blood stage parasites. How it is done:
P. falciparum asexual blood-stage culture. P. falciparum 3D7 isolate was maintained under standard conditions in complete culturing medium [10.44 g/L RPMI 1640 (Invitrogen), 5.94 g/L HEPES (Invitrogen), 50 mg/L hypoxanthine (Sigma), 2.02 g/L sodium bicarbonate (Sigma), 5 g/L albuMAX II (Invitrogen), 25 mg/L gentamicin (Sigma), pH 7.2]. Parasite cultures were supplied with human red blood cells (Gulf Coast Regional Blood Center) at 1% hematocrit. To obtain synchronous cultures, Plasmodium parasites (at least 50% parasites were at the early-ring stage) were pelleted at 300×g for 7 min using a low brake setting and treated with 25 volume 5% D-sorbitol (Sigma) at 37° C. for 10 min. Treated parasites were then harvested and washed with 25 volume of complete culturing medium using the aforementioned centrifugation protocol, and diluted with the complete medium to 1% hematocrit to maintain the parasite culture at 37° C. and 5% CO2.
Protein extraction and Western blot for K63-linked ubiquitination in Plasmodium blood stage. […] Total protein lysates were heated in SDS loading buffer for 5 min at 80° C., analyzed on 4-20% Tris-Glycine polyacrylamide gels (Novex, Life Technologies) and subsequently transferred to nitrocellulose membranes. […]

In series [3] the test system is P. berghei. The series is described as follows: Liver stage parasite load, luciferase-expressing P. berghei in Huh7 cells. Format: cell-based, Plasmodium berghei ANKA. To be noted: Huh7 host cells, read-out: IC50 Liver state (Huh7). The procedure: as §1, §3
Another series concerns the target GCK (Homo sapiens, UniProt Q12851). The series is described as follows: Kinase profiling (Dundee), GCK. The class given is biochemical. The procedure: (§4) Kinase selectivity profiling. The selectivity profile of HS-206 to inhibit mammalian kinases was tested against a panel of 140 kinases at a single concentration of 10 μM. Tests were performed using a radiolabeld (^33P-ATP) filter-binding assay at the International Centre for Kinase Profiling at the University of Dundee, UK (http://www.kinase-screen.mrc.ac.uk/).
(§5) This panel contains members of all major kinase families, including tyrosine kinases (TK), tyrosine kinase-like (TKL), sterile serine/threonine (STE), and CDK/MAPK/GSK/CLK (CMGC). […] For these kinases, IC50 values were determined (Table 1).

In a further series the target is GFP-PfPK9 (Plasmodium falciparum, UniProt Q8IEG4). The experiment in a line: ATP-competitive binding assay (ATP-sepharose pull-down, FLECS). The settings on record: GFP-PfPK9; Kd calculated from EC50 of ATP pull-down dose-response; read-out: Kd, app. How it is done:
Primary small-molecule screen. A small-molecule screen was performed similar to a previously reported fluorescence linked enzyme chemoproteomic strategy (FLECS). Briefly, HEK293-GFP-PfPK9 cells were grown in 182-cm^2 tissue culture flasks (Genesee Scientific) and harvested at ˜80% cell confluency. Before assays the culture medium was aspirated, cells were rinsed with ice cold PBS and then they were removed with a cell scraper. Cells were pelleted by centrifugation (2,000 rpm, 4° C., 2 min) and immediately lysed for assays. The pellet was suspended in buffer A (25 mM HEPES, pH 7.4, 150 mM NaCl, 60 mM MgCl2, 1 mM DTT) with 1 μM microcystin, 0.1% Triton X-100 plus a Roche Complete protease inhibitor tablet and then placed on ice for 30 min to facilitate lysis. The supernatant was collected after centrifugation (4,300 rpm, 4° C., 5 min) and used in subsequent screening and titrations experiments. For screening, the supernatant was added to ATP-sepharose beads (1:1) and incubated with agitation at 4° C. for at least 1 hr to allow binding. Following this incubation, the mixture was centrifuged, the ATP resin was washed with 9 column volumes of buffer A with 1 M NaCl and then 9 column volumes of buffer A. The ATP-sepharose medium was reconstituted as a 1:1 slurry with buffer A and then added to 96-well filter plates (50 μL/well) (Corning #3505) using a multichannel pipette (Rainin). The filter plate was on top of black 96-well catch plates (Corning #3915). An ATP dilution series (1-200 mM) was added to each plate as a positive control and DMSO was the negative control. Compounds and controls were all added to 50 μL per well in buffer A. For screening, compounds were tested in singlicate at 500 μM. The final DMSO concentration in every well was 5%. The fluorescence intensity in each well was measured on an EnVision system. Data analyses of screens were carried out in EXCEL (Microsoft, Corp.) and actives were identified as 2×background signal.
All screening positives that were verified with Western blot analysis were purchased from Enamine or Vitas-M laboratory. The purity of compounds 1-5 (shown below) was verified by high-resolution MS (Agilent). Compounds were tested in 8-point dose-response (0-500 μM) experiments in duplicate, essential as described above. The fluorescence intensity in each well was measured using an EnVision system. Dose-response analysis was performed with GraphPad Prism to acquire EC50 values. Determined EC50 values were used to calculate the observed PfPK9 Kd and reported values are the average of 2-3 independent experiments.
Stable cell line generation. The P. falciparum PK9 gene (PlasmoDB accession #PF3D7_1315100) was cloned into the pEGFP-C1 mammalian expression vector (Clontech) in frame with a […] GFP tag. For screening, HEK293 cells were transfected with the resulting PfPK9-pEGFP-C1 vector to generate HEK293-GFP-PfPK9 expressing cells using X-tremeGENE HP transfection reagent (Roche) per the manufacturer instructions. Briefly, the culture medium was replaced at 48 hours post-transfection with medium supplemented with 1 mg/mL G418 sulfate (Life Technologies) to select for stably transfected cells. Following stable cell selection, fluorescence activated cell sorting (FACS) was used to enrich for GFP-PfPK9 expressing cells. Subsequently, FACS sorted HEK293-GFP-PfPK9 cells were cultured with medium supplemented with 0.5 mg/mL G418 sulfate for all following experiments. Protein expression was verified by Western blot analysis probing for anti-GFP and by fluorescence intensity using an EnVision (PerkinElmer) system.
All 14 positive molecules were also tested for their binding affinity to PfPK9 using an optimized ATP-competitive binding assay. EC50 values ranging from low μM to low mM were observed and these EC50 values were used to derive dissociation constants as described previously. […]

A further series concerns the target CLK2 (Homo sapiens, UniProt P49760). The series is described as follows: Kinase profiling (Dundee), CLK2. The class given is biochemical. The procedure:
as §4, §5

The next series has as its target MINK1 (Homo sapiens, UniProt Q8N4C8). The experiment in a line: Kinase profiling (Dundee), MINK1. Format: biochemical. The procedure: as §4, §5

T1 sequence (O43318 whole entry): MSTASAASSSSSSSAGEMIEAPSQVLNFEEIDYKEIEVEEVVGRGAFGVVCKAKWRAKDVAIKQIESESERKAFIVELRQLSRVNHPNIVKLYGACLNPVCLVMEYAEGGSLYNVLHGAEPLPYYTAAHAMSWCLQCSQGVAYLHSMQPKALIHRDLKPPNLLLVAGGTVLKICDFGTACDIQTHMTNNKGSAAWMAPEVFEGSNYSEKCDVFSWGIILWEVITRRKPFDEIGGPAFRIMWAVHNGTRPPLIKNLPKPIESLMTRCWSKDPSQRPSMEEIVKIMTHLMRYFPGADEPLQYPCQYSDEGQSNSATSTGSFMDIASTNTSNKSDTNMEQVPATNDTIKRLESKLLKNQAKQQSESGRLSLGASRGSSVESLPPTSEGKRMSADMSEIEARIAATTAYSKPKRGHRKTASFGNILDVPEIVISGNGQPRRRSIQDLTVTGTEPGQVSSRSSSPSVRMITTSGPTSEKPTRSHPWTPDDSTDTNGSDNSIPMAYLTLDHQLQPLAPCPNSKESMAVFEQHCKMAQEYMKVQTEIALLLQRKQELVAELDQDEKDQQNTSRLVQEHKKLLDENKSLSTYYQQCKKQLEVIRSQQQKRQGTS
Sequence of GCK (Q12851 whole entry): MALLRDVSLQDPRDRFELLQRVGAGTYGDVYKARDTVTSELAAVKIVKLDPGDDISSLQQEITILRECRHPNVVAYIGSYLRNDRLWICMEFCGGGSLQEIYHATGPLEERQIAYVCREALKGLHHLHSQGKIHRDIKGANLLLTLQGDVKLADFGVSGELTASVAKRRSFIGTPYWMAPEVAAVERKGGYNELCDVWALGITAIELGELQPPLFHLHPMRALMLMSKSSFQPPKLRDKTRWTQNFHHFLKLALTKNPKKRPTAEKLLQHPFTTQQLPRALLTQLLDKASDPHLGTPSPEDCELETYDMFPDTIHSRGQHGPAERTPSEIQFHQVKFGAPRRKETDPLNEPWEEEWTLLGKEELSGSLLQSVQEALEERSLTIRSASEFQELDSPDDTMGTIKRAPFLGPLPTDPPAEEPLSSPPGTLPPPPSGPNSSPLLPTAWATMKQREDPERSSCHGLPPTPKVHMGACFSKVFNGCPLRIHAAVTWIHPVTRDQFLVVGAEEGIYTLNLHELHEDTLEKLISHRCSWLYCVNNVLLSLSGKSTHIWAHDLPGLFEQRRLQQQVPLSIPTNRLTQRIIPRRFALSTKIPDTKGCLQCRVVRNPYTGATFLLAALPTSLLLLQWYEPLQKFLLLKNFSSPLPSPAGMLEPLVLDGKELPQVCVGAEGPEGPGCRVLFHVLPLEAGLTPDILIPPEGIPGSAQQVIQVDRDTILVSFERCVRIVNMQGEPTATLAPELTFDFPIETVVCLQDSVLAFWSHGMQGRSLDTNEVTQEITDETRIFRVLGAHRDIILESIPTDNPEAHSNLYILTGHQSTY
Sequence of CLK2 (P49760 whole entry): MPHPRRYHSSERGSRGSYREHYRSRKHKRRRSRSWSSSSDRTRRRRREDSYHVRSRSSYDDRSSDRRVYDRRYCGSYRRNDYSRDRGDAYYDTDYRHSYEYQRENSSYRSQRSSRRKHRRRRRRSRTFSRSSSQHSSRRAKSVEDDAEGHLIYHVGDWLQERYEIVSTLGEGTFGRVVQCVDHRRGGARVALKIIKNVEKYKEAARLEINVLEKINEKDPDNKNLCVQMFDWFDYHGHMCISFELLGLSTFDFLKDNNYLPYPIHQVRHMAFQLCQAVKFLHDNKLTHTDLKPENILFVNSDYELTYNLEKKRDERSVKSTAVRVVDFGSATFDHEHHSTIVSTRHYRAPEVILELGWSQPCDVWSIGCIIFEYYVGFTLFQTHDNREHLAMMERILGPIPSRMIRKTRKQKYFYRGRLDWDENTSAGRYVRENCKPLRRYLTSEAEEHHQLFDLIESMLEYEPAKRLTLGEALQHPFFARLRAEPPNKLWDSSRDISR
Sequence of GFP-PfPK9 (Q8IEG4 entry or part of it): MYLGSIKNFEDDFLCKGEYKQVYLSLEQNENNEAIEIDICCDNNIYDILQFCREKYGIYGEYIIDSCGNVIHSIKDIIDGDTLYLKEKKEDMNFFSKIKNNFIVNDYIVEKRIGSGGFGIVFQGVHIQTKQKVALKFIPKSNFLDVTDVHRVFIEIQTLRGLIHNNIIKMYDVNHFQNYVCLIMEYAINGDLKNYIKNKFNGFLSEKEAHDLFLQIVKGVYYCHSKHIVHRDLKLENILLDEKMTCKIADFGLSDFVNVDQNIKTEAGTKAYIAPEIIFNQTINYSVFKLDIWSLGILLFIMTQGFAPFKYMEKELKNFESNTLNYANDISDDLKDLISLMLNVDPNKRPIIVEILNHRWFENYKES
Sequence of MINK1 (Q8N4C8 whole entry): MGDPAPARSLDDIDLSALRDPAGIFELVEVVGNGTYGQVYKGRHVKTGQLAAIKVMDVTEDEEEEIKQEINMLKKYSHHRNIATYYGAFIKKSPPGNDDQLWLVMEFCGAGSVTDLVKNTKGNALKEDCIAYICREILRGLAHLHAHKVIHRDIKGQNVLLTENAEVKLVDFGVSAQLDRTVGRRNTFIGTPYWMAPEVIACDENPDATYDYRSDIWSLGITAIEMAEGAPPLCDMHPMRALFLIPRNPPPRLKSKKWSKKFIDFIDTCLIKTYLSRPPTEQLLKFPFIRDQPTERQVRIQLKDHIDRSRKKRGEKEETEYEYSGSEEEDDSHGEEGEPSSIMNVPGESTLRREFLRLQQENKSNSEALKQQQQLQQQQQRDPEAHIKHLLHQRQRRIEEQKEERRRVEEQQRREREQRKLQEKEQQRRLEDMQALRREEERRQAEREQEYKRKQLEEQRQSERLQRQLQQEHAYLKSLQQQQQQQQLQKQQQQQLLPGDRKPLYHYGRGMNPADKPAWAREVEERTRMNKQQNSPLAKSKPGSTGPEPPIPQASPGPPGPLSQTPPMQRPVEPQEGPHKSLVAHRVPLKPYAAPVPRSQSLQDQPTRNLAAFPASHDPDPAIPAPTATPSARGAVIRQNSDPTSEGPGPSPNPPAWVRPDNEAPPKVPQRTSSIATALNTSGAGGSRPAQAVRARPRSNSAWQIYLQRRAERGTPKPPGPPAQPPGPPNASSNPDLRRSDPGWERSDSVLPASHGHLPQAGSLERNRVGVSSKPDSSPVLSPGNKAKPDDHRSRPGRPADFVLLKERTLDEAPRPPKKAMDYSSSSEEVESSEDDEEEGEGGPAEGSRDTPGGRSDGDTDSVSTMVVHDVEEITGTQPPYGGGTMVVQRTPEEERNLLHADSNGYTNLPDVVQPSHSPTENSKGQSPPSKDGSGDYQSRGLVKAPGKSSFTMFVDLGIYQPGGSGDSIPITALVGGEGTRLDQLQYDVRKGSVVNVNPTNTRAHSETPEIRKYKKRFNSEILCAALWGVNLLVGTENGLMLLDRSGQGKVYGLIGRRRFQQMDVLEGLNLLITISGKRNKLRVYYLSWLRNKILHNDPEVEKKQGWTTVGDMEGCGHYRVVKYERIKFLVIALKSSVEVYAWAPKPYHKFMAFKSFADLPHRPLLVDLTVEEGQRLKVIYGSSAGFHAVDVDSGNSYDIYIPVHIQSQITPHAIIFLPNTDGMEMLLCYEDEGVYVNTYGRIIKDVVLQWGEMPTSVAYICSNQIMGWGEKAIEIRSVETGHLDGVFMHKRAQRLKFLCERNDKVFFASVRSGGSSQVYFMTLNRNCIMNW

On to `CCCn1/c(=N/C(=O)c2cccc(C(N)=O)c2)[nH]c2cc(/C=C/C(=O)NCCCOCCOCCOCCOCCOCCCNc3cccc4c3C(=O)N(C3CCC(=O)NC3=O)C4=O)ccc21` (stereo not shown) [HS-237], for which the entries for the “protein levels (TAK1)” value on TAK1 (0.1 μM) and at TAK1 (higher concentrations) were “reduction in protein levels” and “no effect”, respectively.
Take `Cc1nc(-c2cccs2)c(CCC(=O)Nc2cccc3cccnc23)s1` [compound 5]: the IC50 in the series on P. berghei [1] (Plasmodium berghei, HepG2, parasite load) was determined as 10 µM; in the series on P. berghei [1] (parasite load), 9.7 µM; in the series on P. berghei [3] (Plasmodium berghei, Huh-7, parasite load) it was 9 µM; in the series with P. berghei [3] (parasite load), 8.5 µM. Moreover, in the series on PfPK9, the “UBC13 phosphorylation by PfPK9” value is listed as “significantly decreased”. The “effect on liver cell viability” value in the series on Huh7 cells and with HepG2 cells was “neither compound 4 or 5 had any significant effects on cell viability” in each case. For the same molecule, the K63-linked ubiquitination entry in series [2] is on record as “decreased K63-linked ubiquitination in blood stage parasites albeit to a lesser extent than compound 1”.
In the case of `CCCn1/c(=N/C(=O)c2cccc(C(N)=O)c2)[nH]c2ccccc21` [HS-206 (1), (E)-N-(1-Propyl-1,3-dihydro-2H-benzo[d]imidazol-2-ylidene)isophthalamide], the half-inhibitory concentration (IC50) against GCK was 0.43 ± 0.04 µM; against CLK2, 0.43 ± 0.04 µM; against MINK1, 1.9 ± 1 µM. At GFP-PfPK9, the Kd is approximately 0.2 µM. For the same molecule, the “effect on liver cell viability” value in the series on Huh7 cells and with HepG2 cells was “did not affect liver cell viability even at 200 μM” each time.

The term IC50 denotes the concentration needed to halve the response being measured.
